Experimental data from ChEMBL document CHEMBL6092146 (Bioorg Med Chem, 2024).
Converted amounts (≈) assume the structure as drawn.

Experiments:
[1] = test system: HepG2; assay: cells; conditions: Homo sapiens, HepG2, 72 h
Description: Anticancer activity against human HepG2 cells assessed as reduction in cell viability incubated for 72 hrs by MTT assay

[2] = test system: HCT-116; assay: cells; conditions: Homo sapiens, HCT-116, 72 h
Description: Anticancer activity against human HCT-116 cells assessed as reduction in cell viability incubated for 72 hrs by MTT assay

[3] = test system: HeLa; assay: cells; conditions: Homo sapiens, 72 h
Description: Anticancer activity against human HeLa cells assessed as reduction in cell viability incubated for 72 hrs by MTT assay

[4] = test system: CNE-2; assay: Anticancer activity against human CNE-2 cells assessed as reduction in cell viability incubated for 72 hrs by MTT assay; type: functional, cell-based; conditions: CNE-2, 72 h
[5] = cells; conditions: Homo sapiens, SPCA1, 72 h
Description: Anticancer activity against human SPCA1 cells assessed as reduction in cell viability incubated for 72 hrs by MTT assay

[6] = Antiproliferative activity against human GBM-0627-GFD cells assessed as reduction in cell viability by MTT assay; type: functional, cell-based
[7] = test system: MDA-MB-231; assay: cells; type: functional, cell-based; conditions: Homo sapiens, MDA-MB-231, 48 h
Description: Anticancer activity against human MDA-MB-231 cells assessed as reduction in cell growth incubated for 48 hrs by MTT assay

[8] = target: Cholinesterase (Equus caballus, UniProt P81908); assay: Inhibition of equine serum BuChE using butyrylthiocholine iodide as substrate measured for 30 mins by ELLman's method
[9] = target: Acetylcholinesterase (Electrophorus electricus, UniProt O42275); assay: Inhibition of electric eel AchE using acetylthiocholine as substrate incubated for 30 mins by Ellman's method
[10] = test system: Staphylococcus aureus; assay: microbe, parasite or virus in culture; conditions: Staphylococcus aureus, 171, 24 h
Description: Antimicrobial activity against methicillin-resistant Staphylococcus aureus 171 clinical isolate assessed as bacterial growth inhibition incubated for 24 hrs by CLSI based broth microdilution method

[11] = test system: Pseudomonas aeruginosa; assay: microbe, parasite or virus in culture; conditions: Pseudomonas aeruginosa, 126, 24 h
Description: Antibacterial activity against multidrug-resistant Pseudomonas aeruginosa 126 clinical isolate assessed as reduction in bacterial growth incubated for 24 hrs by CLSI based broth microdilution method

[12] = test system: Escherichia coli; assay: microbe, parasite or virus in culture
Description: Antibacterial activity against Escherichia coli assessed as inhibition of bacterial growth by broth microdilution method

[13] = test system: Acinetobacter baumannii; assay: microbe, parasite or virus in culture; conditions: ATCC 19606
Description: Antibacterial activity against Acinetobacter baumannii ATCC 19606 assessed as inhibition of bacterial growth by broth microdilution method

[14] = test system: CNE; assay: cells; type: functional, cell-based; conditions: Homo sapiens, 48 h
Description: Anticancer activity against human CNE cells assessed as reduction in cell growth incubated for 48 hrs by MTT assay

[15] = test system: SK-OV-3; assay: cells; type: functional, cell-based; conditions: Homo sapiens, SK-OV-3, 48 h
Description: Anticancer activity against human SK-OV-3 cells assessed as reduction in cell growth incubated for 48 hrs by MTT assay

[16] = test system: HEK-293T; assay: Antiproliferative activity against HEK293T cells assessed as reduction in cell viability incubated for 48 hrs by CCK-8 assay; type: functional, cell-based; conditions: Homo sapiens
[17] = test system: HepG2; assay: cells; conditions: Homo sapiens, HepG2, 48 h
[18] = test system: KB; assay: Antiproliferative activity against human KB cells assessed as reduction in cell viability incubated for 48 hrs by CCK-8 assay; type: functional, cell-based
[19] = test system: MCF7; assay: Antiproliferative activity against human MCF7 cells assessed as reduction in cell viability incubated for 48 hrs by CCK-8 assay; type: functional, cell-based; conditions: MCF7, 48 h
[20] = test system: HeLa; assay: Antiproliferative activity against human HeLa cells assessed as reduction in cell viability incubated for 48 hrs by CCK-8 assay; type: functional, cell-based

Chain of Acetylcholinesterase (O42275 whole entry): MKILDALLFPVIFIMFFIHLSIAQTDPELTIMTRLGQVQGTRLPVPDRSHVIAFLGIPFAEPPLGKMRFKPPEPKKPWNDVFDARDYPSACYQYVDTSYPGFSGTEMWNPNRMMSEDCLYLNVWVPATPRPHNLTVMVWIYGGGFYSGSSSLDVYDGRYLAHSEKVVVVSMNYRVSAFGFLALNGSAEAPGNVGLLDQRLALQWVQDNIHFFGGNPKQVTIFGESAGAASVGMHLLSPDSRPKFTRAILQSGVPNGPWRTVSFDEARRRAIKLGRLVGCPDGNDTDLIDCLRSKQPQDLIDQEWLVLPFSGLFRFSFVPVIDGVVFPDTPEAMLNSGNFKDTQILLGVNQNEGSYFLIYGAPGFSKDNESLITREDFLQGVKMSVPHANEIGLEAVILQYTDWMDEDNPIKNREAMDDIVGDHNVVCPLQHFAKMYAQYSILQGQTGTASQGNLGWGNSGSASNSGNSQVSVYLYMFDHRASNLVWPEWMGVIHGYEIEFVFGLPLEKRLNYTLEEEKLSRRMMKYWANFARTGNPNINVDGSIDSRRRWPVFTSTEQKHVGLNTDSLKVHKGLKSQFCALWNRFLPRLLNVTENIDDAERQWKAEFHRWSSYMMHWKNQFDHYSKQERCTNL
Chain of Cholinesterase (P81908 whole entry): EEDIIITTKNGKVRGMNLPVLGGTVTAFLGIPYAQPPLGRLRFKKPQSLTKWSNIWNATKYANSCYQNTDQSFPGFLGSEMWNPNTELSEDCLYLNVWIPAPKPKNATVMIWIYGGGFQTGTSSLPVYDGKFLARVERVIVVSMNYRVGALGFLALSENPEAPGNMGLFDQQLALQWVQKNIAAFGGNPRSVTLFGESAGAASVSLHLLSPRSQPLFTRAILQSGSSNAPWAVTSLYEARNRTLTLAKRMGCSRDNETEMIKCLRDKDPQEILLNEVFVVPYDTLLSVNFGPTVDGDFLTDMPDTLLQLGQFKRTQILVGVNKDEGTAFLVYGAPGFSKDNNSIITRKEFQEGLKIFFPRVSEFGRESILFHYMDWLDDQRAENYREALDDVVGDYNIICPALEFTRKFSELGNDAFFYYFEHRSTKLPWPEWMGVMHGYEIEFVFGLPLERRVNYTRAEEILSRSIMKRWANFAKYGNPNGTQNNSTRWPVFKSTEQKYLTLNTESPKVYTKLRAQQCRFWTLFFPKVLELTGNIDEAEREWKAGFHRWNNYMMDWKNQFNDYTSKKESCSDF

SMILES: CCOP(=O)(OCC)C(NC(=O)c1cc(O)c2c(c1)C(=O)c1cccc(O)c1C2=O)c1cccc(Cl)c1 (configuration not stated)
- IC50 [1]: 39.2 µM
- IC50 [2]: 48.2 µM
- IC50 [3]: 35.2 µM
- IC50 [4]: 68 µM
- IC50 [5]: 28.3 µM

SMILES: CCOP(=O)(OCC)C(NC(=O)c1cc(O)c2c(c1)C(=O)c1cccc(O)c1C2=O)c1cccc(OC)c1 (configuration not stated)
- IC50 [4]: 24.1 µM
- IC50 [5]: 28.3 µM

SMILES: CCOP(=O)(OCC)C(NC(=O)c1cc(O)c2c(c1)C(=O)c1cccc(O)c1C2=O)c1ccccc1OC (configuration not stated)
- IC50 [4]: 28.6 µM
- IC50 [5]: 15 µM

SMILES: CCOP(=O)(OCC)C(NC(=O)c1cc(O)c2c(c1)C(=O)c1cccc(O)c1C2=O)c1ccccc1 (configuration not stated)
- IC50 [4]: 34.3 µM
- IC50 [5]: 27.4 µM

SMILES: CCOP(=O)(OCC)C(NC(=O)c1cc(O)c2c(c1)C(=O)c1cccc(O)c1C2=O)c1ccc(OC)cc1 (configuration not stated)
- IC50 [4]: 42.9 µM
- IC50 [5]: 38.9 µM

SMILES: CCOP(=O)(OCC)C(C)(NC(=O)c1cc(O)c2c(c1)C(=O)c1cccc(O)c1C2=O)c1ccc(C)cc1 (configuration not stated)
- IC50 [2]: 30.6 µM
- IC50 [3]: > 50 µM
- IC50 [4]: 33.8 µM
- IC50 [5]: 16.9 µM

SMILES: CCOP(=O)(OCC)C(C)(NC(=O)c1cc(O)c2c(c1)C(=O)c1cccc(O)c1C2=O)c1ccccc1 (configuration not stated)
- IC50 [2]: 23.4 µM
- IC50 [3]: > 50 µM
- IC50 [4]: 38.3 µM
- IC50 [5]: 25.1 µM

SMILES: CCOP(=O)(OCC)C(C)(CCc1ccccc1)NC(=O)c1cc(O)c2c(c1)C(=O)c1cccc(O)c1C2=O (configuration not stated)
- IC50 [2]: 12.7 µM
- IC50 [3]: 45.4 µM
- IC50 [4]: 27.3 µM
- IC50 [5]: 9.01 µM

SMILES: O=C(CCCCCNC(=O)c1cc(O)c2c(c1)C(=O)c1cccc(O)c1C2=O)NO
- IC50 [6]: 5.5 µM

SMILES: Cc1ccc(Nc2ncnc3ccc(NC(=O)c4cc(OCc5ccccc5)c5c(c4)C(=O)c4cccc(OCc6ccccc6)c4C5=O)cc23)cc1
- IC50 [7]: 3.1 µM

SMILES: O=C(NCCCCCCCCNc1c2c(nc3ccccc13)CCCC2)c1cc(O)c2c(c1)C(=O)c1cccc(O)c1C2=O
- IC50 [8]: 0.36 µM
- IC50 [9]: 0.148 µM

SMILES: COc1ccc(C[n+]2ccc(CCCOC(=O)c3cc(O)c4c(c3)C(=O)c3cccc(O)c3C4=O)cc2)cc1.[Br-]
- MIC [10]: 16 µg/mL
- MIC [11]: 32 µg/mL
- MIC [12]: > 128 µg/mL
- MIC [13]: 128 µg/mL

SMILES: O=C(NCCCCCCNc1c2c(nc3cc(Cl)ccc13)CCCC2)c1cc(O)c2c(c1)C(=O)c1cccc(O)c1C2=O
- IC50 [8]: 0.773 µM
- IC50 [9]: 0.022 µM

SMILES: Cc1ccc(C[n+]2ccc(CCCOC(=O)c3cc(O)c4c(c3)C(=O)c3cccc(O)c3C4=O)cc2)cc1.[Br-]
- MIC [10]: 8 µg/mL
- MIC [11]: 16 µg/mL
- MIC [12]: 64 µg/mL
- MIC [13]: > 128 µg/mL

SMILES: COc1ccc(Nc2ncnc3ccc(NC(=O)c4cc(OCc5ccccc5)c5c(c4)C(=O)c4cccc(OCc6ccccc6)c4C5=O)cc23)cc1
- IC50 [7]: 42.4 µM
- IC50 [14]: 24.8 µM
- IC50 [15]: > 100 µM

SMILES: N#Cc1ccc(C[n+]2ccc(CCCNC(=O)c3cc(O)c4c(c3)C(=O)c3cccc(O)c3C4=O)cc2)cc1.[Br-]
- MIC [10]: 16 µg/mL
- MIC [11]: 32 µg/mL
- MIC [12]: 64 µg/mL
- MIC [13]: > 128 µg/mL

SMILES: COc1cccc(Nc2ncnc3ccc(NC(=O)c4cc(OCc5ccccc5)c5c(c4)C(=O)c4cccc(OCc6ccccc6)c4C5=O)cc23)c1
- IC50 [7]: 74.1 µM
- IC50 [14]: 56.4 µM
- IC50 [15]: 68.6 µM

SMILES: CCCCOc1cccc2c1C(=O)c1c(OCCCC)cc(C(=O)N[C@H](C(=O)O)C(C)C)cc1C2=O
- IC50 [16]: 43.1 µM
- IC50 [17]: 54.4 µM
- IC50 [18]: 28.6 µM
- IC50 [19]: > 100 µM
- IC50 [20]: 67.8 µM

SMILES: N[C@@H](CCCCNC(=O)c1cc(O)c2c(c1)C(=O)c1cccc(O)c1C2=O)C(=O)O
- IC50 [6]: > 80 µM

SMILES: O=C(NCCCCCCNc1c2c(nc3ccccc13)CCC2)c1cc(O)c2c(c1)C(=O)c1cccc(O)c1C2=O
- IC50 [8]: 0.219 µM
- IC50 [9]: 0.543 µM

SMILES: CC(C)c1ccc(COc2cccc3c2C(=O)c2c(OCc4ccc(C(C)C)cc4)cc(C(=O)N[C@H](C(=O)O)C(C)C)cc2C3=O)cc1
- IC50 [16]: 1.9 µM
- IC50 [17]: 5.8 µM
- IC50 [18]: 9.4 µM
- IC50 [19]: 13.9 µM
- IC50 [20]: 37.5 µM

SMILES: O=C(Nc1ccc2ncnc(Nc3ccc(F)cc3)c2c1)c1cc(OCc2ccccc2)c2c(c1)C(=O)c1cccc(OCc3ccccc3)c1C2=O
- IC50 [7]: 3 µM
- IC50 [14]: 12.4 µM
- IC50 [15]: 20.5 µM

SMILES: CC(C)[C@H](NC(=O)c1cc(OCc2ccccc2)c2c(c1)C(=O)c1cccc(OCc3ccccc3)c1C2=O)C(=O)O
- IC50 [16]: 21.5 µM
- IC50 [17]: 36.1 µM
- IC50 [18]: 15.6 µM
- IC50 [19]: 36.5 µM
- IC50 [20]: 44.9 µM

SMILES: O=C(NCCCCNc1c2c(nc3ccccc13)CCCC2)c1cc(O)c2c(c1)C(=O)c1cccc(O)c1C2=O
- IC50 [8]: 0.286 µM
- IC50 [9]: 0.0587 µM

SMILES: Cc1cccc(Nc2ncnc3ccc(NC(=O)c4cc(OCc5ccccc5)c5c(c4)C(=O)c4cccc(OCc6ccccc6)c4C5=O)cc23)c1
- IC50 [7]: 49.9 µM
- IC50 [14]: 5.9 µM
- IC50 [15]: > 100 µM

SMILES: CC(C)[C@H](NC(=O)c1cc(OCc2cccc(F)c2)c2c(c1)C(=O)c1cccc(OCc3cccc(F)c3)c1C2=O)C(=O)O
- IC50 [16]: 12.9 µM
- IC50 [17]: 29.6 µM
- IC50 [18]: 17.8 µM
- IC50 [19]: 38.6 µM
- IC50 [20]: 35.4 µM

SMILES: CC(C)[C@H](NC(=O)c1cc(OCCCc2ccccc2)c2c(c1)C(=O)c1cccc(OCCCc3ccccc3)c1C2=O)C(=O)O
- IC50 [16]: 1.6 µM
- IC50 [17]: 3.6 µM
- IC50 [18]: 4.9 µM
- IC50 [19]: 4.5 µM
- IC50 [20]: 9.4 µM

SMILES: CO/N=C(\C(=O)N[C@@H]1C(=O)N2C(C(=O)O)=C(COC(N)=O)CS[C@H]12)c1ccco1 [CEFUROXIME]
- MIC [10]: 1020 µg/mL (≈ 2410 µM)
- MIC [11]: 1020 µg/mL (≈ 2410 µM)
- MIC [12]: 64 µg/mL (≈ 151 µM)
- MIC [13]: 1020 µg/mL (≈ 2410 µM)

SMILES: O=c1[nH]cc(F)c(=O)[nH]1 [FLUOROURACIL]
- IC50 [1]: 30 µM
- IC50 [4]: 40.2 µM
- IC50 [5]: 42.2 µM
